This series can be described thus: Solubility tests of copper(I) complexes in organic solvents. It counts as physicochemical. The conditions noted are these: for Löslichkeit (qualitative): effect of the unsymmetrical ligand m-Tolylphosphin s. Here is the method:
Bei Koordination an ein Kupferatom könnten die m-Tolyl-Gruppen jeweils auf zwei verschiedene Weisen gedreht vorliegen (Figur 5). Vermutlich wird auf dieses Weise die Packung im Festkörper gestört, wodurch eine höhere Löslichkeit erzielt wird. In der Wärme (60 °C) wurde beispielsweise für Komplex 1-I-s eine Löslichkeit von rund 40 mg mL^-1 erreicht; weitere Löslichkeitsdaten sind in Tabelle 1 aufgeführt.
Komplex 1-I-s zeigt neben einer guten Löslichkeit auch eine besonders hohe Quanteneffizienz, sowohl in Pulver (93%) als auch im Dünnfilm (90%). Interessanterweise kommt es bei der Filmpräparation dieser Verbindung zu nahezu keiner Verschiebung der Emissionswellenlänge (Film: 550 nm, Pulver: 547 nm). Offenbar liegt bereits im Festkörper eine Verzerrung ähnlich der Situation im Film vor. Die Struktur wird, wie oben erläutert wurde, durch die als sterisch anspruchsvolle Gruppen wirkenden Tolylreste stabilisiert. Tabelle 1: Löslichkeitstests für Komplex 1-I-s.

As to “(MePyrPHOS)(Tris-m-tolyl-phosphin)2Cu2I2 [Komplex 1-I-s]”, the “Löslichkeit (qualitative)” value is reported as “erhöhte Löslichkeit”. The Löslichkeit entry (1-Heptanol, Konzentration: 5 mg/mL) is “Ja (Wärme)”. Moreover, where the note is “1-Heptanol, Konzentration: 10 mg/mL”, the Löslichkeit entry was “Ja (Wärme)”. Further, under “1-Heptanol, Konzentration: 2,5 mg/mL”, the Löslichkeit result was “Ja”. Moreover, the Löslichkeit result (1-Hexanol, Konzentration: 5 mg/mL) is recorded as “Ja (Wärme)”. Moreover, the Löslichkeit result (1-Hexanol, Konzentration: 10 mg/mL) is “Ja (Wärme)”. For the same substance, the Löslichkeit entry (1-Hexanol, Konzentration: 2,5 mg/mL) is reported as “Ja”. Further, under “Aceton, Konzentration: 5 mg/mL”, the Löslichkeit entry is recorded as “Ja”. In addition, the Löslichkeit entry (Aceton, Konzentration: 10 mg/mL) is reported as “Ja”. Also, under “Aceton, Konzentration: 2,5 mg/mL”, the Löslichkeit entry is listed as “Ja”. In addition, under “Acetonitril, Konzentration: 5 mg/mL”, the Löslichkeit entry is listed as “Ja (Wärme)”. Also, the Löslichkeit result (Acetonitril, Konzentration: 10 mg/mL) is “Ja (Wärme)”. For the same substance, the Löslichkeit entry (Acetonitril, Konzentration: 2,5 mg/mL) is given as “Ja”. The Löslichkeit entry (Cyclooctan, Konzentration: 5 mg/mL) is “Ja (Wärme)”. For the same substance, the Löslichkeit result (Cyclooctan, Konzentration: 10 mg/mL) is listed as “Nein”. Besides, where the note is “Cyclooctan, Konzentration: 2,5 mg/mL”, the Löslichkeit entry is on record as “Ja”. In addition, the Löslichkeit entry (Essigester, Konzentration: 5 mg/mL) is reported as “Ja”. For the setting “Essigester, Konzentration: 10 mg/mL”, the Löslichkeit entry was “Ja”. Besides, the Löslichkeit result (Essigester, Konzentration: 2,5 mg/mL) is on record as “Ja”. Further, the Löslichkeit (In der Wärme (60 °C), solvent not stated) was about 40 mg/mL. The “Löslichkeit (max.)” value (Mesitylen) is given as at most 20 mg/mL. Further, the Löslichkeit result (Mesitylen, Konzentration: 5 mg/mL) is on record as “Ja”. For the same substance, the Löslichkeit entry (Mesitylen, Konzentration: 10 mg/mL) is “Ja”. Moreover, the Löslichkeit entry (Mesitylen, Konzentration: 2,5 mg/mL) was “Ja”. Moreover, the “Löslichkeit (max.)” value (O-Xylol) is reported as at most 20 mg/mL. Also, the Löslichkeit result (O-Xylol, Konzentration: 5 mg/mL) was “Ja”. For the same substance, the Löslichkeit result (O-Xylol, Konzentration: 10 mg/mL) is reported as “Ja”. Moreover, the Löslichkeit result (O-Xylol, Konzentration: 2,5 mg/mL) is “Ja”. For the same substance, the “Löslichkeit (max.)” value (Tetralin) was at most 20 mg/mL. Further, the Löslichkeit entry (Tetralin, Konzentration: 5 mg/mL) is given as “Ja”. For the same substance, the Löslichkeit entry (Tetralin, Konzentration: 10 mg/mL) was “Ja”. The Löslichkeit result (Tetralin, Konzentration: 2,5 mg/mL) was “Ja”.

For “(PyrPHOS)(tris-m-tolyl-phosphin)2Cu2I2 [Komplex 11-I-s]”, the “Löslichkeit (qualitative)” value was “erhöhte Löslichkeit”.

In the case of “(Tris-(3-methyl-phenyl)phosphin)(4-tBu-pyridin)Cu2Br2 [E-Br-s]”, the “Löslichkeit (qualitative)” value is “erhöhte Löslichkeit”.

Consider “(Tris-(3-methyl-phenyl)phosphin)(4-tBu-pyridin)Cu2I2 [E-I-s]”, for which the “Löslichkeit (qualitative)” value was “erhöhte Löslichkeit”.

These data come from patent EP3221422B1, “COPPER(I) COMPLEXES FOR OPTOELECTRONIC APPLICATIONS” (cynora GmbH, priority 2014, dated 2016).
